Reference: PMC5540152 (Cell reports, 2017)
Ends that are not written are not given here.

Tests used:
[1] = target: T1, CaMKII (Homo sapiens, UniProt Q9UQM7); assay: Kinetics of CaMKII inhibition; type: biochemical
[2] = target: T1, CaMKII; details: stimulated CaMKII activity; ref Coultrap and Bayer, 2011; cited from earlier work

T1 sequence (Q9UQM7 whole entry): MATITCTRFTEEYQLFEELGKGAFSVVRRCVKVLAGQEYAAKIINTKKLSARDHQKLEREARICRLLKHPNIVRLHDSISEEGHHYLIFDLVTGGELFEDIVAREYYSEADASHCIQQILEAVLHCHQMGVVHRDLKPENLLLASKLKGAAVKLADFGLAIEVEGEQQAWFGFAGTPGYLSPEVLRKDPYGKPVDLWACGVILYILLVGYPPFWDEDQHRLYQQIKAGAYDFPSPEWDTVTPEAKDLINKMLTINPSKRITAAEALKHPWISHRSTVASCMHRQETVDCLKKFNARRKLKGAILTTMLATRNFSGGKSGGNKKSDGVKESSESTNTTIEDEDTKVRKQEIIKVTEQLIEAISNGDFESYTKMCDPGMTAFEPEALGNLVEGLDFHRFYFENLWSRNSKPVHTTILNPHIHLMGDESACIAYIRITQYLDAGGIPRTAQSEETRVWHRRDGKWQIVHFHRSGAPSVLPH

α-factor compared to the parent compounds ([1]; vs CN19 and CN19a2v): minimal effect on the α-factor
Ki compared to the parent compounds ([1]; vs parent compounds CN19 and CN19a2v): dramatically improved
Sequence: KRAPKLGQIGRQKAVDIED [CN19o]
enhancement of potency [2]: > 250 fold
enhancement of selectivity [2]: > 250 fold
